Measurements published in patent publication EP4527843A1, “STEREOISOMERIC PHOSPHATIDYLOLIGOGLYCEROL” (Thermosome GmbH, priority 2023, dated 2025).
Read-outs that look alike come from different tables or passages of the source.

Tests used:
Phospholipase A2 = biological target: T1, Phospholipase A2 (Sus scrofa, UniProt P00592); test: Stereospecific cleavage of DPPG2 with Phospholipase A2 (HPLC/CAD); type: in vitro ADME, porcine; conditions: 0.5 U enzyme; for DPPG2 still detectable in the sample: after 10 min, 2 µmol lipid, Tris-buffer pH 8.5 with CaCl2, 37°C, normalized to t=0 min
T1 construct: commercially available enzyme (extracted from porcine pancreas) was used; purchased; host or cells: porcine pancreas (tissue extract)
T1 sequence (P00592 23-146): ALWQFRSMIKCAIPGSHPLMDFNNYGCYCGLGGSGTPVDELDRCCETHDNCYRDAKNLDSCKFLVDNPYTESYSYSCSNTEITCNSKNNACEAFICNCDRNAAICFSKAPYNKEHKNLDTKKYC
Protocol: Phospholipases are enzymes that selectively cleave bonds in glycerophospholipids based on their stereochemistry. They play a role in the metabolization of glycerophospholipids in vivo. Phospholipase A2 hydrolyzes 1,2-acyl-sn-glycero-3-phospholipids to their 1-acyl-sn-glycero-3-phospholipid and the corresponding fatty acid. For the experiments, commercially available enzyme (extracted from porcine pancreas) was used. Lipid samples (2 µmol) were dissolved 1.5 wt% deoxycholate and subsequently incubated in Tris-buffer pH 8.5 supplemented with CaCl2 together with 0.5 U enzyme in a thermoshaker at 37°C. At distinct time points, samples were taken and cleavage was analyzed by HPLC. […] The analytes are separated using a gradient elution using 100 mM NH4Ac pH 6.0 in water and methanol as eluent A and eluent B, respectively. Column oven was set to 35°C.
Three DPPG2 batches differing in configurations of the stereogenic centers in their diglycerol headgroup were tested and DPPC was applied as control glycerophospholipid (Figure 2). […] After 10 min, 14.8%, 20.4%, and 24.3% of DPPG2 according to WO 9730058, WO 2014/202680 A1, and Formula III, respectively, was still detectable in the sample.

[1] = system: BN175 tumor (soft tissue sarcoma); conditions: 2 mg/kg DOX single i.v. bolus in combination with 60 min lamp HT (41°C); ranking in words
Protocol: Finally, the therapeutic efficacy of both DPPG2-TSL-DOX formulations was investigated in vivo and compared to selected clinically relevant DOX formulations (e.g., non-liposomal DOX, Caelyx). […] All animals had one BN175 tumor (soft tissue sarcoma) s.c. implanted to one hind leg. Local HT treatment was performed with a light source. Target temperature was 41 °C. Animals were preheated to this temperature for 30 min and temperature was maintained at 41 °C for 60 min after i.v. bolus injection. Animals treated with a DOX formulation received 2 mg/kg DOX as single i.v. bolus injection after one tumor diameter was > 5 mm. After the end of the treatment, animals were placed back into a cage and tumor growth was monitored every 2nd day until reaching an end point (e.g., tumor diameter > 3 cm, exulzeration, bleeding, skin toxicity).

[2] = Accumulation of DOX in tumor tissue and organs, rat BN175 sarcoma model; type: in vivo, Brown Norway rats; conditions: male, Brown Norway, rat, 60 min after i.v. bolus 2 mg/kg DOX
Protocol: (§1) Eighteen anaesthetized tumor-bearing male Brown Norway rats (-300 g) received a dose of 2 mg/kg DOX of either non-liposomal DOX (n = 6), DPPG2-TSL-DOX (DPPG2 according to formula III) (n = 6), or DPPG2-TSL-DOX (DPPG2 according to WO 97/30059) (n = 6) as i.v. bolus injection, respectively. All animals had two BN175 tumors (soft tissue sarcoma) subcutaneously implanted to each hind leg, respectively. One tumor received 60 min of a local HT treatment with a light source of 41.5°C, whereas the second tumor remained untreated (room temperature, NT). […] Animals were sacrificed after 60 min, organs were perfused, and tumors and organs were collected. DOX content was measured in plasma by HPLC equipped with a fluorescence detector.

[3] = system: BN175 tumors (soft tissue sarcoma); test: as above; type: in vivo, Brown Norway rats
Protocol: as §1

[4] = PK study in healthy rats after i.v. bolus, normothermia; type: in vivo, Brown Norway rats; conditions: 2 mg/kg DOX i.v. bolus, rat; result in words
Protocol: For the PK study, 18 anaesthetized healthy male Brown Norway rats (-300 g) received a dose of 2 mg/kg DOX of either non-liposomal DOX (n = 6), DPPG2-TSL-DOX (DPPG2 according to formula III) (n = 6), or DPPG2-TSL-DOX (DPPG2 according to WO 97/30059) (n = 6) as i.v. bolus injection, respectively. Body temperature of the animals was controlled via a rectal temperature probe. During anesthesia, the body temperature of animals was maintained by a water bath (37°C). Blood samples were taken at defined time points. DOX and DPPG2 content were measured in plasma by HPLC equipped with a fluorescence detector and LC/MS, respectively.

CCCCCCCCCCCCCCCC(=O)OC[C@H](COP(=O)(O)OCC(O)COCC(O)CO)OC(=O)CCCCCCCCCCCCCCC (mixture of isomers) [DPPG2 according to WO 9730058, 1,2-Dipalmitoyl-sn-glycero-3-phospho-rac-diglycerol]
DPPG2 still detectable in the sample (Phospholipase A2): 14.8%

CCCCCCCCCCCCCCCC(=O)OC[C@H](COP(=O)([O-])OCC[N+](C)(C)C)OC(=O)CCCCCCCCCCCCCCC [DPPC, 1,2-dipalmitoyl-sn-glycero-3-phosphocholine]
cleavage by phospholipase A2 compared with DPPG2 (Phospholipase A2; control glycerophospholipid, 37°C): cleaved notably slower than DPPG2

CCCCCCCCCCCCCCCC(=O)OC[C@H](COP(=O)(O)OC[C@@H](O)COC[C@H](O)CO)OC(=O)CCCCCCCCCCCCCCC [DPPG2 according to Formula III, 1,2-dipalmitoyl-sn-glycero-3-phospho-sn-1'-glycero-sn-3"-glycerol]
DPPG2 still detectable in the sample (Phospholipase A2): 24.3%

CCCCCCCCCCCCCCCC(=O)OC[C@H](COP(=O)(O)OC[C@@H](O)COCC(O)CO)OC(=O)CCCCCCCCCCCCCCC (stereo partly shown) [DPPG2 according to WO 2014/202680 A1, 1,2-Dipalmitoyl-sn-glycero-3-phospho-sn-1'-diglycerol]
DPPG2 still detectable in the sample (Phospholipase A2): 20.4%

COc1cccc2c1C(=O)c1c(O)c3c(c(O)c1C2=O)C[C@@](O)(C(=O)CO)C[C@@H]3O[C@H]1C[C@H](N)[C@H](O)[C@H](C)O1 [non-liposomal DOX, doxorubicin]
survival (Kaplan-Meier, 5-fold increase in tumor volume) / therapeutic efficacy [1]: comparable | concentration at 60 min ([2]; heated BN175 tumor (HT 41.5°C), iv, HT 41.5°C, read-out: DOX concentration in the heated tumors): 3100 ± 500 ng/g | concentration at 60 min ([2]; untreated BN175 tumor (NT, iv), NT, room temperature, read-out: DOX concentration in the untreated tumors): 1900 ± 300 ng/g | DOX accumulation in lung and heart compared to both DPPG2-TSL-DOX formulations ([3]; 60 min after i.v. bolus 2 mg/kg DOX, result in words): significantly higher | increase of DOX tumor accumulation by HT application (compared to the content in the untreated tumors) ([3]; 60 min local HT 41.5°C light source vs untreated tumor, 2 mg/kg DOX i.v.): 1.6 fold | DOX plasma clearance [4]: cleared within minutes
